Measurements: patent US10259807B2, “1-(piperazin-1-yl)-2-([1,2,4]triazol-1-yl)-ethanone derivatives” (Idorsia Pharmaceuticals Ltd., priority 2013, dated 2019)

Test: Determination of pharmacokinetic parameters in rats
Settings: for AUC: male, Wistar (RccHan:WIST), rat, po, 2 mg/kg
Method: Male Wistar rats (RccHan:WIST) were obtained from Harlan (Venray, The Netherlands) and used for pharmacokinetic experiments after an acclimatization period of at least 7 days. The body weight of the rats was about 250 g at the day of the experiment. Two days prior to dosing, rats were anesthetized for surgery via inhalation of isoflurane (4-5% for induction and 1.5-3% for maintenance) in oxygen. Buprenorphine was dosed as analgesic at 0.03 mg/kg sc half an hour before surgery. Under aseptic conditions, catheters were implanted into jugular vein for dosing and carotid artery to allow for multiple serial blood sampling. […] Compounds were administered intravenously via a 5-minute infusion at doses of 0.5 or 1 mg/kg body weight formulated as solutions in water prepared by pH adjustment or as an aqueous mixed micellar vehicle based on phospholipids and bile acids (mixed micelles). […] Oral formulations were solutions in water prepared by pH adjustment or dispersions prepared by addition of a DMSO stock solution of the compounds to methylcellulose (0.5% w/v) in water. […] Blood samples were centrifuged at 3000 g (10 minutes, 4° C.) and plasma was submitted to LC-MS/MS analysis.

## CSc1ncc(-c2cc(C(F)(F)F)ccc2N2CCN(C(=O)Cn3nc(C)cc3C)CC2)cn1 [reference compound 2, 2-(3,5-Dimethyl-pyrazol-1-yl)-1-{4-[2-(2-methylsulfanyl-pyrimidin-5-yl)-4-trifluoromethyl-phenyl]-piperazin-1-yl}-ethanone]
plasma
  AUC: 0.202 µg·h/mL

## CNc1ncc(-c2cc(C(F)(F)F)ccc2N2CCN(C(=O)Cn3nc(C)cc3C)CC2)cn1 [reference compound 3, 2-(3,5-Dimethyl-pyrazol-1-yl)-1-{4-[2-(2-methylamino-pyrimidin-5-yl)-4-trifluoromethyl-phenyl]-piperazin-1-yl}-ethanone]
plasma, pH 3.03
  AUC: 0.271 µg·h/mL

## Cc1nc(C)n(CC(=O)N2CCN(c3sc(C(F)(F)F)nc3-c3cnc(C(F)(F)F)nc3)C[C@H]2C)n1 [Example 24, 2-(3,5-Dimethyl-[1,2,4]triazol-1-yl)-1-{(R)-2-methyl-4-[2-trifluoromethyl-4-(2-trifluoromethyl-pyrimidin-5-yl)-thiazol-5-yl]-piperazin-1-yl}-ethanone]
Compared to reference compounds disclosed in WO 2010/126811
  plasma concentration after oral administration: surprisingly high plasma concentration
In vivo, pH 2.1
  AUC: 14 µg·h/mL

## COc1ncc(-c2cc(C(F)(F)F)ccc2N2CCN(C(=O)Cn3nc(C)cc3C)CC2)cn1 [reference compound 1, 2-(3,5-Dimethyl-pyrazol-1-yl)-1-{4-[2-(2-methoxy-pyrimidin-5-yl)-4-trifluoromethyl-phenyl]piperazin-1-yl}-ethanone]
plasma
  AUC: 0.273 µg·h/mL
